Experimental findings from ChEMBL document CHEMBL5465560, “Selectivity Literature for EUbOPEN Chemogenomic Library” (2024) are described below.

The subject of assay [1] is RAF proto-oncogene serine/threonine-protein kinase (Homo sapiens), P04049 [Y340D,Y341D]. In words: Selectivity interaction (LanthaScreen Eu Kinase Binding Assay) EUB0001632a RAF1. As to conditions: at 10 µM.
The target of assay [2] is T1, Ephrin type-B receptor 4 (Homo sapiens) (UniProt P54760).
T1 sequence (whole entry): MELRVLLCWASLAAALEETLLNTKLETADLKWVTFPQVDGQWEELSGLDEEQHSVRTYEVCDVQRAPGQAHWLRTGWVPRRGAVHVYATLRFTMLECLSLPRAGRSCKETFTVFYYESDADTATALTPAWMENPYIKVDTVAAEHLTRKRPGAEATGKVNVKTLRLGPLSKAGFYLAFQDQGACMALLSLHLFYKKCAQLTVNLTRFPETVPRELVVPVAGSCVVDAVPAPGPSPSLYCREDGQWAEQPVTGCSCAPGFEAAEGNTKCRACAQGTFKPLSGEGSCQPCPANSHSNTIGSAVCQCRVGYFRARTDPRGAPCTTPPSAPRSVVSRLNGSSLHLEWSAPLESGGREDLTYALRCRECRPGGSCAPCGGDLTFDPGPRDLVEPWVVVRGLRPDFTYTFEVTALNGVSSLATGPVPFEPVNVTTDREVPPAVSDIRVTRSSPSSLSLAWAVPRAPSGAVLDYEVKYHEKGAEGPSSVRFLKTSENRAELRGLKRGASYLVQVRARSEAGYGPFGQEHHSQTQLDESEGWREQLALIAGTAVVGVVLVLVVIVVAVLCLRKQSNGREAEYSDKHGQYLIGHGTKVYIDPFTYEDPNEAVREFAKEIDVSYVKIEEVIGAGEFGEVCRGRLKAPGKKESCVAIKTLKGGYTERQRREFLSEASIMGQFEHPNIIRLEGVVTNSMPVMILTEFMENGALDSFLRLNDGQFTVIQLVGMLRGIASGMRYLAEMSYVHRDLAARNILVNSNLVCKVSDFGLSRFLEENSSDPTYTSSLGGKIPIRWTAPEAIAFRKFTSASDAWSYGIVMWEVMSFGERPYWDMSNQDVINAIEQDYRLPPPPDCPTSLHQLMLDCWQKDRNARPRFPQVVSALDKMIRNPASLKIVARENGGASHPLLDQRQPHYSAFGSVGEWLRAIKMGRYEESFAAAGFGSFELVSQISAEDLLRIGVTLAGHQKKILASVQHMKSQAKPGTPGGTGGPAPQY
The experiment in a line: Selectivity interaction (SelectScreen profiling (Invitrogen)) EUB0000607a EPHB4. As to conditions: at 2 µM.

Assay [3] addresses Ribosomal protein S6 kinase alpha-4 (Homo sapiens) (UniProt O75676). The experiment in a line: Selectivity interaction (KinaseProfiler screening (Millipore)) EUB0000601a RPS6KA4. As to conditions: at 3 µM.
Assay [4] addresses T2, Tyrosine-protein kinase Mer (Homo sapiens) (UniProt Q12866).
T2 sequence (whole entry): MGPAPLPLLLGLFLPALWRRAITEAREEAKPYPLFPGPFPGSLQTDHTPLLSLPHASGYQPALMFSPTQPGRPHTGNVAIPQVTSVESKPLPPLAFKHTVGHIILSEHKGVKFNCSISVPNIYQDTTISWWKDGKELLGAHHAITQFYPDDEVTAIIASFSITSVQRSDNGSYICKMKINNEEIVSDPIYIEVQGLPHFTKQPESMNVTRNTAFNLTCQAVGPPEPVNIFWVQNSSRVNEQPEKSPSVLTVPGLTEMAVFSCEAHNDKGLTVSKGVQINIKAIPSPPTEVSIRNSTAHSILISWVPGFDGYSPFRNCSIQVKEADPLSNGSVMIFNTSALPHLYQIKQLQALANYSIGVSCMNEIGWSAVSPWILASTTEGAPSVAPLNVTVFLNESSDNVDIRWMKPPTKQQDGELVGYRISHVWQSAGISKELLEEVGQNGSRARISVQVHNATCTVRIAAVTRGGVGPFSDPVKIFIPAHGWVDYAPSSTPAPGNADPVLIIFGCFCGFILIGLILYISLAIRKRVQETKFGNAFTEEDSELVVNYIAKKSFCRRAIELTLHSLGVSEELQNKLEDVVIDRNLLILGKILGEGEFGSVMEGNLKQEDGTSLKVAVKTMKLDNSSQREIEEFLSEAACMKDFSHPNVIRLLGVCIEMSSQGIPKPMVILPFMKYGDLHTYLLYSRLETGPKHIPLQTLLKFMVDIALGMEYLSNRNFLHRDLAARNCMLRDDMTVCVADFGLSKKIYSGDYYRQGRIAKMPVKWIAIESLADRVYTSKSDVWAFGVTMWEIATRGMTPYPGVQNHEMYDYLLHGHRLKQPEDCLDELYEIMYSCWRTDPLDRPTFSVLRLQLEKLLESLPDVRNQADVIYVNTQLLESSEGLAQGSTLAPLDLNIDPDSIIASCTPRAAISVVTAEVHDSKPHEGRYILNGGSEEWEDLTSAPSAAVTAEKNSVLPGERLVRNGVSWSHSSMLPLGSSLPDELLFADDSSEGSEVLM
The experiment in a line: Selectivity interaction (Kinase screening (Nanosyn)) EUB0000604a MERTK.

For assay [5], the target named is MAP/microtubule affinity-regulating kinase 3 (Homo sapiens) (UniProt P27448). In words: Selectivity interaction (Kinase panel (DSF assay)) EUB0001559a MARK3. For orientation: Differential scanning fluorimetry follows unfolding on heating by fluorescence.
The target of assay [6] is Serine/threonine-protein kinase Chk2 (Homo sapiens) (UniProt O96017). The experiment in a line: Selectivity interaction (KinomeScan (DiscoverX)) EUB0000618a CHEK2. As to conditions: at 10 µM.
Assay [7] has as its target Serine/threonine-protein kinase SIK2 (Homo sapiens) (UniProt Q9H0K1). The experiment in a line: Selectivity interaction (KinomeScan (DiscoverX)) EUB0000618a SIK2. As to conditions: at 10 µM.
Assay [8] concerns the target T3, 3-phosphoinositide-dependent protein kinase 1 (Homo sapiens) (UniProt O15530).
T3 sequence (whole entry): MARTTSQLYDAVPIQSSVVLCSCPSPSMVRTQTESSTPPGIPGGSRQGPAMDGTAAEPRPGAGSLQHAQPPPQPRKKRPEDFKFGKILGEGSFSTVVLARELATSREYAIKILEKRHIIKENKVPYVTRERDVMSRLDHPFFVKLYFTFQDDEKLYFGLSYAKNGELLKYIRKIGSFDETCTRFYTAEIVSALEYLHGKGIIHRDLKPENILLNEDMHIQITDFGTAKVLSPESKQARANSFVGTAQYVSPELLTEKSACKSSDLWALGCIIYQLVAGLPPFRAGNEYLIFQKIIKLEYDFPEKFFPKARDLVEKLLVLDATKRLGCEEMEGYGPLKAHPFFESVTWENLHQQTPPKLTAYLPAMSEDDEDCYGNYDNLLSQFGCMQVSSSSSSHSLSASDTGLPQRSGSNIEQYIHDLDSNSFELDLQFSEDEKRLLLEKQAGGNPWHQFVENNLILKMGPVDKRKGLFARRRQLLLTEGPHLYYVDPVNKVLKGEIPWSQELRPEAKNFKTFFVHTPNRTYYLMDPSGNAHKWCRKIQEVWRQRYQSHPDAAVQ
As to conditions: at 10 µM.

Structures are written as SMILES.

MAP/microtubule affinity-regulating kinase 3 (Homo sapiens), sequence (P27448 whole entry, looked up): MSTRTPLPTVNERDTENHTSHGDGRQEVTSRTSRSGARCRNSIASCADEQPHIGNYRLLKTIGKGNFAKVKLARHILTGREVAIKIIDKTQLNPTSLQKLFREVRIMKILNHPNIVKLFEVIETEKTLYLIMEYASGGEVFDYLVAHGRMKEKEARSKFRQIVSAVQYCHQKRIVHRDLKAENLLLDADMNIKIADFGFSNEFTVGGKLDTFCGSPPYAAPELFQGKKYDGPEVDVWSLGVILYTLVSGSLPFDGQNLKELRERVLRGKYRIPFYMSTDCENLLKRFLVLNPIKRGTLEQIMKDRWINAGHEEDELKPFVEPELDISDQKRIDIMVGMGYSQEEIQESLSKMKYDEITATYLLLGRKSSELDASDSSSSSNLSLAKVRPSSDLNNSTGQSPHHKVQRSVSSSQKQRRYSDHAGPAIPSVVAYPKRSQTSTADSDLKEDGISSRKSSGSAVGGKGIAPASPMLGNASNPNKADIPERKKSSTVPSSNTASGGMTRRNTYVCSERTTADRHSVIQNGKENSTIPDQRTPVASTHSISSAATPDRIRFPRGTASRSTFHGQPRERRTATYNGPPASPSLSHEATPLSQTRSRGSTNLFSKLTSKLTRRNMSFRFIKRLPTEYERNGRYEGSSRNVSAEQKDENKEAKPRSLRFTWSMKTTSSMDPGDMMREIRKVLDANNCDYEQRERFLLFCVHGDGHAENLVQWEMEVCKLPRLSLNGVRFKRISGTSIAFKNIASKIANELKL
Serine/threonine-protein kinase Chk2 (Homo sapiens), sequence (O96017 whole entry): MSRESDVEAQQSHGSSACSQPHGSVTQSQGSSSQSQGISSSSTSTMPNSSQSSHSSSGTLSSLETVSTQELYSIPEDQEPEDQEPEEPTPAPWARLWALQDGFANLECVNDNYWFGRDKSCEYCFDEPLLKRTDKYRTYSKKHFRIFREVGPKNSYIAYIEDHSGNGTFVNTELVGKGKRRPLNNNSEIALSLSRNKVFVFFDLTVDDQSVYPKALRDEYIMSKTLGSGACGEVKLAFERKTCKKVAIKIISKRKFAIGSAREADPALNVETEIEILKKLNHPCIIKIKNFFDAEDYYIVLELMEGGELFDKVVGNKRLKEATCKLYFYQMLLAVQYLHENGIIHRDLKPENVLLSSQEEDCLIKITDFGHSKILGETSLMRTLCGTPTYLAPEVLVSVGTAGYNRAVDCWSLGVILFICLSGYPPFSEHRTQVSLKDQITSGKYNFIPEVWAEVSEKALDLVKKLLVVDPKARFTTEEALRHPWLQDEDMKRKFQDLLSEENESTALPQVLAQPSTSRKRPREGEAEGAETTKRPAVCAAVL
Ribosomal protein S6 kinase alpha-4 (Homo sapiens), sequence (O75676 whole entry, looked up): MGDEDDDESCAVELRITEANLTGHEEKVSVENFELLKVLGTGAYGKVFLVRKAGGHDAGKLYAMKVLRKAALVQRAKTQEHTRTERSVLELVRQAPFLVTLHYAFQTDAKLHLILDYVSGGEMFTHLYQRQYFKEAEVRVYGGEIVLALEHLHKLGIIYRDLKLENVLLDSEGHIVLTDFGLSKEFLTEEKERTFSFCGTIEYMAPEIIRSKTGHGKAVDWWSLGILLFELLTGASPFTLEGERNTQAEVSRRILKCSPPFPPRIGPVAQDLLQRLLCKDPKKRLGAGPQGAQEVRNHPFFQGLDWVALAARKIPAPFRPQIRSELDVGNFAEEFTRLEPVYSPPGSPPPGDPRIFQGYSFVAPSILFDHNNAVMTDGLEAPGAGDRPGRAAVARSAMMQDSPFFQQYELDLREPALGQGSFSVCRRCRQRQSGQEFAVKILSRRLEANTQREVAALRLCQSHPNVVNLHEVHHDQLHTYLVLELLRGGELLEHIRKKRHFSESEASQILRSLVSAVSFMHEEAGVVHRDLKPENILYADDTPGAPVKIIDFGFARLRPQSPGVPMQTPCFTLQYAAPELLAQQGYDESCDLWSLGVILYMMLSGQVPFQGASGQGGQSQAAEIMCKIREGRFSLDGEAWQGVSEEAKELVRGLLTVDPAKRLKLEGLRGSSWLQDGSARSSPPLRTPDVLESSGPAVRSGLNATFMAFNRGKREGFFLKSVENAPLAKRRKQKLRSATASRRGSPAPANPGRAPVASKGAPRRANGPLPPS
Serine/threonine-protein kinase SIK2 (Homo sapiens), sequence (Q9H0K1 whole entry, looked up): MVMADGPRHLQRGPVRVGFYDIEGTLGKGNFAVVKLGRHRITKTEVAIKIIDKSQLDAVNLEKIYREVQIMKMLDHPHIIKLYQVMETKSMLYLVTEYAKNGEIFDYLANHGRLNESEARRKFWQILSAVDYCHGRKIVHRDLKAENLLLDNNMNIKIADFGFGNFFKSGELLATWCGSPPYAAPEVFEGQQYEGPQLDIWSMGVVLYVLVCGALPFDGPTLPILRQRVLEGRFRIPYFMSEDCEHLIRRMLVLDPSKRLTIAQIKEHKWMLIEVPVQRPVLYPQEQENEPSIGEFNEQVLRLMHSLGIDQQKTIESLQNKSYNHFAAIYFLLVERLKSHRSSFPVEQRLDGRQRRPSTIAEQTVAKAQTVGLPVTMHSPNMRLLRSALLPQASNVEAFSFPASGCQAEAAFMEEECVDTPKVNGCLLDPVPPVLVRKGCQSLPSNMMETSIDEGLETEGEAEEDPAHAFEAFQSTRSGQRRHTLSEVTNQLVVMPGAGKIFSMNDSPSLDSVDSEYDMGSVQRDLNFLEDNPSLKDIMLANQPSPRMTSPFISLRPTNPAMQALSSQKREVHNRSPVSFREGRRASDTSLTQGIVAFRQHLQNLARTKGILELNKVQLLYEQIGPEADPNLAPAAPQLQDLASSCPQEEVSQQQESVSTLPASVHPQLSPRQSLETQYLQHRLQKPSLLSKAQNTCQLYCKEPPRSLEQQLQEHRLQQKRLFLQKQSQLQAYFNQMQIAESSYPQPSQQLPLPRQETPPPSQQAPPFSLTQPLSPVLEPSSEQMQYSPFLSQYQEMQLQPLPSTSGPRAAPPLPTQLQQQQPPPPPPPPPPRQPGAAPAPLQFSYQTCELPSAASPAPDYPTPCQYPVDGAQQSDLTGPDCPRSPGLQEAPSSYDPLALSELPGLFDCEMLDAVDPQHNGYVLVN
RAF proto-oncogene serine/threonine-protein kinase (Homo sapiens), P04049 [Y340D,Y341D], sequence (P04049 whole entry Y340D/Y341D): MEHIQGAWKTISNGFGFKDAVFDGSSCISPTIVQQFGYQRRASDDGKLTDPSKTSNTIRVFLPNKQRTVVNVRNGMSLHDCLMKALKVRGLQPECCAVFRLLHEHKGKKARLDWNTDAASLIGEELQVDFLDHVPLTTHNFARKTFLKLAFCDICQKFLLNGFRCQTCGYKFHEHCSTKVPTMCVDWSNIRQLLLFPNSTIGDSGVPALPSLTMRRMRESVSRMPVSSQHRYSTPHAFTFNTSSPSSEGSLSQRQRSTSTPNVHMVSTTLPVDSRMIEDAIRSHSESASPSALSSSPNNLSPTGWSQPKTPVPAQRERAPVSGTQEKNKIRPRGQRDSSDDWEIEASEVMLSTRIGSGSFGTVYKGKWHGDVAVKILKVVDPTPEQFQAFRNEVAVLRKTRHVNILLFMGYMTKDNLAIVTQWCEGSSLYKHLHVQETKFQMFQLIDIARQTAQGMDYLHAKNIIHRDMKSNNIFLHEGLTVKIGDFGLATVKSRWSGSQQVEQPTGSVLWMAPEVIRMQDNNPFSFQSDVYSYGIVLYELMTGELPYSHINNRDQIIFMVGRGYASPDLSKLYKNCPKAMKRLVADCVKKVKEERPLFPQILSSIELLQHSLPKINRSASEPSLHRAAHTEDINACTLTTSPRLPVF

In the case of `Cn1cc(-n2cnc3c(NCc4nc5cc(Cl)c(Cl)cc5[nH]4)nc(N4CCOCC4)nc32)cn1`, the % of inhibition in assay [1] stood at 5.65%.
For `CNC(=O)Nc1ccc(-c2nc(N3CC4CCC(C3)O4)c3cnn(C4CCC5(CC4)OCCO5)c3n2)cc1`, the % of inhibition in assay [2] is -4%.
For the compound `CCc1cc(Nc2nccc(-c3c(-c4ccc(OC)c(C(=O)Nc5c(F)cccc5F)c4)nc4ccccn34)n2)c(OC)cc1N1CCC(N2CCN(S(C)(=O)=O)CC2)CC1`, the % of inhibition in assay [3] was found to be 55%.
Take `Cc1cnc(Nc2ccc(F)cc2Cl)nc1-c1c[nH]c(C(=O)N[C@H](CO)c2cccc(Cl)c2)c1`: the % of inhibition in assay [4] came out at 9%.
`CN(C(=O)c1cnn2cccnc12)c1cc2c(cc1N1CCOCC1)C(=O)N(C[C@@H](F)C(C)(C)O)C2` had a dTM in assay [5] of 0.7 K.
Consider `O[C@H]1CC[C@H](Nc2ncc3nc(Nc4c(F)cc(F)cc4F)n([C@H]4CCOC4)c3n2)CC1`, for which the % of control was found to be 100% in assay [6] and 33% in assay [7].
For `COCC(=O)NC/C=C/c1ccc2ncnc(Nc3ccc(Oc4ccc(C)nc4)c(C)c3)c2c1` [CP-724714], the % of control in assay [8] worked out at 100%.
